According to publication PMC9200803, “Design, synthesis, and biological evaluation of tetrahydroquinolinones and tetrahydroquinolines with anticancer activity” (Scientific Reports, 2022):

What was measured:
HCT-116 cells = assay: MTT cell viability assay, HCT-116; assay type: cell-based, human; conditions: 72 h; for IC50: MTT, IC50 ± SD; for cytotoxicity on tested cell lines: HCT-116, MCF-7, A-549, concentrations up to 50 µM
Protocol: (§1) To evaluate the effects of the newly synthesized tetrahydroquinolin-2(1H)-one derivatives on cell viability, we treated human colon cancer cells HCT-116, human breast cancer cells MCF-7, and human non-small cell lung cancer cells A-549 with different concentrations of the compounds for 72 h. After incubation, the MTT (3-(4,5-dimethylthiazol-2-yl)-2,5-diphenyltetrazolium bromide) assay was performed and the cytotoxic potency of compounds (expressed in IC50) on the cells was determined in comparison to control cells treated with 1% of dimethyl sulfoxide (DMSO) (Table 1). […] We also compared the activity of 20d and 19b to the reference control drug Cisplatin, which is widely used in chemotherapy.
(§2) A-549 (CCL-185) and MCF-7 ([…]) cells were cultured in RPMI-1640 medium, while HCT-116 (CVCL-427), (hMLH1)-deficient (MMR^–) and hMLH1-proficient (MMR^+) RKO cells were cultured in McCoy’s 5A medium. The culture media were supplemented with 10% fetal bovine serum, 2 mM L-glutamine, and antibiotics (penicillin 62.6 µg/ml and streptomycin 40 µg/ml). Cultivation of cell lines was carried out at 37 °C under a humidified atmosphere containing 5% CO2, and the cultures were routinely screened for Mycoplasma contamination. A-549, MCF-7, and HCT-116 cells were obtained from American Type Culture Collection (ATCC), while RKO colon carcinoma cells were a kind gift of Dr Timothy Kinsella (Brown University, USA).
(§3) The viability of cells was determined in response to the newly synthesized compounds using the MTT (Sigma-Aldrich) assay. Briefly, cells were seeded into 96-well plates and allowed to attach overnight. Then, cells were exposed to various concentrations of compounds for 24, 48 or 72 h. Negative controls were treated with the same amount of DMSO solvent (1%). After treatment, the MTT solution (0.4 mg/ml) was added to each well and allowed to react with cells for 2–3 h at 37 °C. Next, the medium was removed, the formazan product formed was dissolved in 100 μl of DMSO, and the absorbance was determined at 540 nm using an ASYS UVM340 microplate reader (Biochrom Ltd.). The IC50 value, which represents the concentration of the compound required to inhibit cell growth by 50% compared to vehicle, was calculated using GraphPad Prism 8 software based on the curves plotting survival against dose averaged from at least three independent experiments.

A-549 cells = assay: MTT cell viability assay, A-549; assay type: cell-based, human; conditions: MTT, 72 h, IC50 ± SD
Protocol: as §1, §2, §3

MCF-7 cells = assay: MTT cell viability assay, MCF-7; assay type: cell-based, human; conditions: IC50 ± SD
Protocol: as §1, §2, §3

HEK293 cells = assay: MTT cell viability assay, HEK293; assay type: cell-based, human
[1] = Homo sapiens, HEK293, IC50 ± SD

IC50 (HCT-116 cells) | IC50 (HCT-116 cells; Homo sapiens, HCT-116, 72 h) | IC50 (A-549 cells; Homo sapiens, A549) | IC50 (MCF-7 cells; Homo sapiens, MCF7, 72 h) | melting point | SMILES | IC50 (A-549 cells) | IC50 (MCF-7 cells; 72 h) | IC50 (HEK293 cells; IC50 ± SD) | cytotoxicity on tested cell lines (HCT-116 cells) | IC50 (HEK293 cells; [1])
 | 26.2 ± 1.69 µM | > 50 µM | > 50 µM |  | COc1cc(-c2ccccc2)c2c(n1)C(OC(=O)Nc1ccccc1)CCC2 (stereo not shown) [Compound 19a, (2-methoxy-4-phenyl-5,6,7,8-tetrahydroquinolin-8-yl) N-phenylcarbamate] |  |  |  |  | > 50 µM
13 ± 2.68 µM | ~13 µM | 28.4 ± 0.56 µM | > 50 µM | 125 to 127 °C | COc1cc(-c2ccccc2)c2c(n1)C(OC(=O)Nc1ccc(F)cc1)CCC2 (stereo not shown) [Compound 19c, (2-methoxy-4-phenyl-5,6,7,8-tetrahydroquinolin-8-yl) N-(4-fluorophenyl)carbamate] |  |  |  |  | > 50 µM
 | 31.6 ± 0.58 µM | 41.1 ± 0.93 µM | > 50 µM |  | COc1cc(-c2ccccc2)c2c(n1)C(OC(=O)Nc1cccc(F)c1)CCC2 (stereo not shown) [Compound 19d, (2-methoxy-4-phenyl-5,6,7,8-tetrahydroquinolin-8-yl) N-(3-fluorophenyl)carbamate] |  |  |  |  | > 50 µM
13.9 ± 1.3 µM | ~13 µM | > 50 µM | > 50 µM | 144 to 146 °C | COc1cc(-c2ccccc2)c2c(n1)C(OC(=O)Nc1ccc(Cl)cc1)CCC2 (stereo not shown) [Compound 19e, (2-methoxy-4-phenyl-5,6,7,8-tetrahydroquinolin-8-yl) N-(4-chlorophenyl)carbamate] |  |  |  |  | > 50 µM
13.1 ± 1.55 µM | ~13 µM | 21.8 ± 0.22 µM | > 50 µM | 144 to 146 °C | O=C(Nc1ccccc1)OC1CCCc2c(-c3ccccc3)cc(=O)[nH]c21 (stereo not shown) [Compound 20a, (2-oxo-4-phenyl-5,6,7,8-tetrahydroquinolin-8-yl) N-phenylcarbamate] |  |  |  |  | > 50 µM
 | > 50 µM | > 50 µM | > 50 µM | 225 to 227 °C | O=C(Nc1ccc([N+](=O)[O-])cc1)OC1CCCc2c(-c3ccccc3)cc(=O)[nH]c21 (stereo not shown) [Compound 20b, (2-oxo-4-phenyl-5,6,7,8-tetrahydroquinolin-8-yl) N-(4-nitrophenyl)carbamate] |  |  |  |  | > 50 µM
 | 18.4 ± 2.04 µM | 23.8 ± 4.02 µM | > 50 µM |  | O=C(Nc1ccc(F)cc1)OC1CCCc2c(-c3ccccc3)cc(=O)[nH]c21 (stereo not shown) [Compound 20c, (2-oxo-4-phenyl-5,6,7,8-tetrahydroquinolin-8-yl) N-(4-fluorophenyl)carbamate] |  |  |  |  | > 50 µM
 | > 50 µM | > 50 µM | > 50 µM |  | O=C(Nc1ccc(Cl)cc1)OC1CCCc2c(-c3ccccc3)cc(=O)[nH]c21 (stereo not shown) [Compound 20e, (2-oxo-4-phenyl-5,6,7,8-tetrahydroquinolin-8-yl) N-(4-chlorophenyl)carbamate] |  |  |  | no cytotoxicity | > 50 µM

Further lines, the molecule ahead of its results:

SMILES | IC50 (HCT-116 cells) | IC50 (HCT-116 cells; Homo sapiens, HCT-116, 72 h) | IC50 (A-549 cells; Homo sapiens, A549) | IC50 (MCF-7 cells; Homo sapiens, MCF7, 72 h) | melting point | IC50 (A-549 cells) | IC50 (MCF-7 cells; 72 h) | IC50 (HEK293 cells; IC50 ± SD) | cytotoxicity on tested cell lines (HCT-116 cells) | IC50 (HEK293 cells; [1])
N.N.[Cl][Pt][Cl] [Cisplatin, reference compound] | 24.9 ± 1.14 µM |  |  |  |  | 29.01 ± 0.12 µM | 33.8 ± 1.56 µM | 28.4 ± 1.97 µM |  | 
O=c1cc(-c2ccccc2)c2c([nH]1)CCCC2 [Compound 9, 4-phenyl-5,6,7,8-tetrahydro-1H-quinolin-2-one] |  | > 50 µM | > 50 µM | > 50 µM |  |  |  |  | no cytotoxicity | > 50 µM
OC1CCCc2c(-c3ccccc3)cc(Cl)nc21 (stereo not shown) [Compound 16, 2-chloro-4-phenyl-5,6,7,8-tetrahydroquinolin-8-ol] |  | > 50 µM | > 50 µM | > 50 µM | 88 to 90 °C |  |  |  | no cytotoxicity | > 50 µM
COc1cc(-c2ccccc2)c2c(n1)C(O)CCC2 (stereo not shown) [Compound 17, 2-methoxy-4-phenyl-5,6,7,8-tetrahydroquinolin-8-ol] |  | > 50 µM | > 50 µM | > 50 µM | 61 to 63 °C |  |  |  | no cytotoxicity | > 50 µM
O=C(Nc1ccccc1)OC1CCCc2c(-c3ccccc3)cc(Cl)nc21 (stereo not shown) [Compound 18a, (2-chloro-4-phenyl-5,6,7,8-tetrahydroquinolin-8-yl) N-phenylcarbamate] |  | 39.8 ± 2.62 µM | 27.2 ± 1.53 µM | > 50 µM | 148 to 150 °C |  |  |  |  | > 50 µM
O=C(Nc1ccc([N+](=O)[O-])cc1)OC1CCCc2c(-c3ccccc3)cc(Cl)nc21 (stereo not shown) [Compound 18b, (2-chloro-4-phenyl-5,6,7,8-tetrahydroquinolin-8-yl) N-(4-nitrophenyl)carbamate] |  | > 50 µM | > 50 µM | > 50 µM |  |  |  |  | no cytotoxicity | > 50 µM
O=C(Nc1ccc(F)cc1)OC1CCCc2c(-c3ccccc3)cc(Cl)nc21 (stereo not shown) [Compound 18c, (2-chloro-4-phenyl-5,6,7,8-tetrahydroquinolin-8-yl) N-(4-fluorophenyl)carbamate] |  | 18.9 ± 1.26 µM | 23.8 ± 4.02 µM | > 50 µM | 113 to 115 °C |  |  |  |  | > 50 µM
O=C(Nc1cccc(F)c1)OC1CCCc2c(-c3ccccc3)cc(Cl)nc21 (stereo not shown) [Compound 18d, (2-chloro-4-phenyl-5,6,7,8-tetrahydroquinolin-8-yl) N-(3-fluorophenyl)carbamate] |  | > 50 µM | > 50 µM | > 50 µM |  |  |  |  | no cytotoxicity | > 50 µM
O=C(Nc1ccc(Cl)cc1)OC1CCCc2c(-c3ccccc3)cc(Cl)nc21 (stereo not shown) [Compound 18e, (2-chloro-4-phenyl-5,6,7,8-tetrahydroquinolin-8-yl) N-(4-chlorophenyl)carbamate] |  | > 50 µM | 45.3 ± 4.2 µM | > 50 µM |  |  |  |  |  | > 50 µM
O=C1CCCc2c(-c3ccccc3)cc(Cl)nc21 [Compound 21, 2-chloro-4-phenyl-6,7-dihydro-5H-quinolin-8-one] |  | > 50 µM | > 50 µM | > 50 µM | 135 to 137 °C |  |  |  | no cytotoxicity | > 50 µM
COc1cc(-c2ccccc2)c2c(n1)C(=O)CCC2 [Compound 22, 2-methoxy-4-phenyl-6,7-dihydro-5H-quinolin-8-one] |  | > 50 µM | > 50 µM | > 50 µM | 127 to 129 °C |  |  |  | no cytotoxicity | > 50 µM
O=C1CCCc2c(-c3ccccc3)cc(=O)[nH]c21 [Compound 23, 4-phenyl-1,5,6,7-tetrahydroquinoline-2,8-dione] |  | > 50 µM | > 50 µM | > 50 µM | 182 to 184 °C |  |  |  | no cytotoxicity | > 50 µM
O=c1cc(-c2ccccc2)c2c([nH]1)C(O)CCC2 (stereo not shown) [Compound 24, 8-hydroxy-4-phenyl-5,6,7,8-tetrahydro-1H-quinolin-2-one] |  | > 50 µM | > 50 µM | > 50 µM | 104 to 106 °C |  |  |  | no cytotoxicity | > 50 µM
